Literature values, collected in the CATMoS acute toxicity set (Mansouri et al. 2021).
“And” between values parts separate entries of the source, which are not always exact repeats. Equal entries are not always repeated.

Test: rat acute oral toxicity
Conditions: in vivo

SMILES	LD50
CC(C)Oc1ccccc1N	840 mg/kg
CON=CC1=CCCNC1	12 mg/kg
O=[N+]([O-])c1ccccc1O	334 mg/kg
CC(C)COCCO	400 mg/kg
Cn1c([N+](=O)[O-])cnc1/C=C/c1ccnc(N)n1	7600 mg/kg
Cc1[nH]c2ccccc2c1C=CC1=[N+](C)c2ccccc2C1(C)C	2450 mg/kg
CCCOCCOC(=O)C1=C(C)NC(C)=C(C(=O)OCCOCCC)C1c1cccc([N+](=O)[O-])c1	1470 mg/kg
CCCCN(CCCC)N=O	1200 mg/kg
COP(=S)(OC)SCCSC(C)C	150 mg/kg
NC(=O)NO	5760 mg/kg
Clc1nc(Cl)nc(Nc2ccccc2Cl)n1	2700 mg/kg
CCOP(=S)(OCC)OCCS(=O)(=O)CC	90 mg/kg
CC1CN(CCO)CC1C (stereo not drawn)	1230 mg/kg
FC(F)(F)c1nc2c(Br)cc(Br)c(Br)c2[nH]1	12.8 mg/kg
CC(C)Cc1ccc(C(C)C(=O)OCCN2CCN(c3cccc(Cl)c3)CC2)cc1 (stereo not drawn)	3350 mg/kg
CN(C)c1ccc(C(=N)c2ccc(N(C)C)cc2)cc1	3000 mg/kg
CCn1c2ccccc2c2cc(N)ccc21	144 mg/kg and 234 mg/kg
CNCCCC1(C#N)c2ccccc2CCc2ccccc21	889 mg/kg
O=C(O)Cc1sc(-c2ccccc2)nc1-c1ccc(Cl)cc1	409 mg/kg
CC(C)N1C(=O)c2ccccc2NS1(=O)=O	1100 mg/kg
Cc1ccccc1-n1c(C)nc2ccccc2c1=O	185 mg/kg
CCCCCCCCc1ccc(C(C[n+]2ccccc2)OCCCC)cc1 (stereo not drawn)	250 mg/kg
CCN1CCOCC1	1780 mg/kg
O=C1CCc2cc(C=CCCN3CCN(c4ccccc4)CC3)ccc2N1	500 mg/kg
COP(=S)(OC)Oc1ccc(SC)c(C)c1	180 mg/kg

SMILES	LD50
CCCN1C(=O)C2C3C=C(C(O)(c4ccccc4)c4ccccn4)C(C3=C(c3ccccc3)c3ccccn3)C2C1=O (stereo not drawn)	34.5 mg/kg
Cc1nn(-c2ccccc2)c(=O)c2noc(C)c12	1000 mg/kg
C=CCc1ccc(OC=O)c(OC)c1	3400 mg/kg
CC(C)(N1CC1C#N)N1CC1C(N)=O (stereo not drawn)	3100 mg/kg
CC(C)(C)c1ccc2cc(C(C)(C)C)c(S(=O)(=O)O)cc2c1	4240 mg/kg
CC(C(c1ccc(Cl)cc1)c1ccc(Cl)cc1)[N+](=O)[O-] (stereo not drawn)	750 mg/kg
CSc1nc(N=[N+]=[N-])nc(NC(C)C)n1	3600 mg/kg
C(=NC1CCCCC1)=NC1CCCCC1	400 mg/kg
CCCCN1C(=O)c2cccc([N+](=O)[O-])c2C1=O	2030 mg/kg
O=C1NS(=O)(=O)c2ccccc21	14200 mg/kg
CC1CN(CCCCCCCCNC(=O)Oc2ccc3c(c2)C2(C)CCN(C)C2N3C)CC(C)O1 (stereo not drawn)	56 mg/kg
C[N+](C)(C)CCI	700 mg/kg
O=[N+]([O-])c1cc(Cl)c(N=Nc2ccc(N3CCS(=O)(=O)CC3)cc2)c(Cl)c1	3200 mg/kg
CCCCOCCCC	7400 mg/kg
O=C(Cl)c1cccc(C(=O)Cl)c1	2200 mg/kg
CCCCN(N=O)c1ccc(N(CCCC)N=O)cc1	2600 mg/kg
FCOC(C(F)(F)F)C(F)(F)F	10800 mg/kg
CC1COC(c2ccccc2)O1 (stereo not drawn)	3000 mg/kg
Cc1cccc(C#N)c1C	3000 mg/kg
COS(=O)(=O)c1ccccc1	740 mg/kg
CCN(CC)CCOc1ccc2c(c1)C(=O)c1cc(OCCN(CC)CC)ccc1-2	852 mg/kg
COP(=O)(SC)SC	26 mg/kg
COC(=O)C(Cl)Cc1ccc(Cl)cc1 (stereo not drawn)	1070 mg/kg
O=c1ccn(C2OC(COP(=O)(O)O)C(O)C2O)c(=O)[nH]1 (stereo not drawn)	12000 mg/kg
CC(=O)Nc1ccncc1	446 mg/kg

SMILES	LD50
Cl[C@H]1[C@H](Cl)[C@@H](Cl)[C@H](Cl)[C@@H](Cl)[C@@H]1Cl (racemic)	6000 mg/kg
CCCCc1c(C)nc(NCC)nc1O	4000 mg/kg
CCS(=O)CCOP(=S)(OC)OC (stereo not drawn)	600 mg/kg
CCC1CCCC(CC)C1N (stereo not drawn)	157 mg/kg
O[C@H](c1cc(-c2ccc(C(F)(F)F)cc2)nc(C(F)(F)F)c1)[C@H]1CCCCN1	518 mg/kg
C=CC(O)CCCCC (stereo not drawn)	340 mg/kg
N#CCCC#N	450 mg/kg
CCN1CCc2c3n(c4ccccc24)C(C(=O)OC)=CCC31 (stereo not drawn)	2350 mg/kg
CN1CC[C@]23c4c5ccc(O)c4O[C@H]2[C@H](N=[N+]=[N-])CC[C@H]3[C@H]1C5	62 mg/kg
CC(C)c1cccc(OC(=O)N(C)C)c1	160 mg/kg
CCCCCCC(C)=CC#N	1720 mg/kg
O=Cc1cccc(Br)c1	1130 mg/kg
COc1cc(NC(=O)CC(C)=O)c(OC)cc1Cl	850 mg/kg
C=COC	4900 mg/kg
CCOC(C1=NCCCN1)c1ccccc1 (stereo not drawn)	1540 mg/kg
Cc1cc(-n2c(C)nc3ccccc3c2=O)cc(C)c1O	230 mg/kg
CCC1(CC)Oc2cccc(OC(=O)N(C)C(C)=O)c2O1	375 mg/kg
COc1ccc2c(c1)c(CC(=O)OC/C=C(\C)CC/C=C(\C)CCC=C(C)C)c(C)n2C(=O)c1ccc(Cl)cc1	1680 mg/kg
CCCCCCCCCCCCCCCCCCCCCCO	10000 mg/kg
CS(=O)C(C)(C)CO (stereo not drawn)	11300 mg/kg
N#Cc1cc(Cl)cc2[nH]c(C(F)(F)F)nc12	4.79 mg/kg
O=[N+]([O-])c1ccc(Oc2c(F)cc(Cl)cc2Cl)cc1	2890 mg/kg
CN1CCCCC1CCN1c2ccccc2Sc2ccc(S(C)=O)cc21 (stereo not drawn)	644 mg/kg
